Experimental data reported in patent publication EP0041644B1 (priority 1980, dated 1981).

Experiments:
L-1210 Leukemia = L-1210 Leukemia (Table IX); type: in vivo, mice
Method: The sodium and ammonium salts of the present invention were tested against transplantable mouse tumors as indicated below.

SMILES: O=C1[O][Pt-2]2([NH2+]CC3(CCCCC3)C[NH2+]2)[O]C(=O)C1O [2-hydroxymalonato (1,1-diaminomethylcyclohexane)platinum (II)]
- Average Weight Change,g (L-1210 Leukemia; 2 mg/kg/inj ip, qd 1→9): -1.3 g
- Effect MST % T/C (L-1210 Leukemia; 2 mg/kg/inj ip, qd 1→9): 138 % T/C
- MST Days (L-1210 Leukemia; 2 mg/kg/inj ip, qd 1→9): 9.0 days
- Survivors Day 5(45) (L-1210 Leukemia; 2 mg/kg/inj ip, qd 1→9): 6/6
- Average Weight Change,g (L-1210 Leukemia; 4 mg/kg/inj ip, qd 1→9): -1.7 g
- Effect MST % T/C (L-1210 Leukemia; 4 mg/kg/inj ip, qd 1→9): 192 % T/C
- MST Days (L-1210 Leukemia; 4 mg/kg/inj ip, qd 1→9): 12.5 days
- Survivors Day 5(45) (L-1210 Leukemia; 4 mg/kg/inj ip, qd 1→9): 6/6
- Average Weight Change,g (L-1210 Leukemia; 8 mg/kg/inj ip, qd 1→9): -2.1 g
- Effect MST % T/C (L-1210 Leukemia; 8 mg/kg/inj ip, qd 1→9): 269 % T/C
- MST Days (L-1210 Leukemia; 8 mg/kg/inj ip, qd 1→9): 17.5 days
- Survivors Day 5(45) (L-1210 Leukemia; 8 mg/kg/inj ip, qd 1→9): 6/6
- Average Weight Change,g (L-1210 Leukemia; 12 mg/kg/inj ip, Day 1): -1.6 g
- Effect MST % T/C (L-1210 Leukemia; 12 mg/kg/inj ip, Day 1): 185 % T/C
- MST Days (L-1210 Leukemia; 12 mg/kg/inj ip, Day 1): 12.0 days
- Survivors Day 5(45) (L-1210 Leukemia; 12 mg/kg/inj ip, Day 1): 6/6
- Average Weight Change,g (L-1210 Leukemia; 12 mg/kg/inj ip, qd 1→9): -2.1 g
- Effect MST % T/C (L-1210 Leukemia; 12 mg/kg/inj ip, qd 1→9): 269 % T/C
- MST Days (L-1210 Leukemia; 12 mg/kg/inj ip, qd 1→9): 17.5 days
- Survivors Day 5(45) (L-1210 Leukemia; 12 mg/kg/inj ip, qd 1→9): 6/6
- Average Weight Change,g (L-1210 Leukemia; 18 mg/kg/inj ip, Day 1): -2.0 g
- Effect MST % T/C (L-1210 Leukemia; 18 mg/kg/inj ip, Day 1): 169 % T/C
- MST Days (L-1210 Leukemia; 18 mg/kg/inj ip, Day 1): 11.5 days
- Survivors Day 5(45) (L-1210 Leukemia; 18 mg/kg/inj ip, Day 1): 6/6
- Average Weight Change,g (L-1210 Leukemia; 24 mg/kg/inj ip, Day 1): -2.8 g
- Effect MST % T/C (L-1210 Leukemia; 24 mg/kg/inj ip, Day 1): 223 % T/C
- MST Days (L-1210 Leukemia; 24 mg/kg/inj ip, Day 1): 14.5 days
- Survivors Day 5(45) (L-1210 Leukemia; 24 mg/kg/inj ip, Day 1): 6/6
- Average Weight Change,g (L-1210 Leukemia; 36 mg/kg/inj ip, Day 1): -3.6 g
- Effect MST % T/C (L-1210 Leukemia; 36 mg/kg/inj ip, Day 1): 246 % T/C
- MST Days (L-1210 Leukemia; 36 mg/kg/inj ip, Day 1): 16.0 days
- Survivors Day 5(45) (L-1210 Leukemia; 36 mg/kg/inj ip, Day 1): 5/6
- maximum T/C (L-1210 Leukemia; qd 1→9 (cis-DDP 2.4, parent 8 and 12, sodium salt 12 mg/kg/injection)): 269%
- maximum T/C (L-1210 Leukemia; single ip injection at maximum tolerated dose (cis-DDP 8 mg/kg, the two others 36 mg/kg)): 246%
- Water-solubility at room temperature (Water solubility): < 1600 µg/mL
